According to patent US20070099838A1, “Plant-derived peptides harboring water-cleaning and antimicrobial activities” (OPTIMA ENVIRONNEMENT S.A., priority 2003, published 2007):

What was measured:
[1] = Coagulating activity (coagulation agents for water treatment), graded relative to FLO; parameters: key: +++: higher activity than FLO; ++: equivalent activity of FLO; +: lower activity than FLO; −: no activity observed; conditions: coagulating activity compared with FLO
Source text: (§1) More information regarding the detailed description of the invention (e.g. material & methods, experimental results) can be found in international patent application PCT/CH03/00568 which is incorporated by reference.

[2] = Antimicrobial (antibiotic) activity, graded relative to FLO; type: cell-based; parameters: key: +++: higher activity than FLO; ++: equivalent activity of FLO; +: lower activity than FLO; −: no activity observed; conditions: antimicrobial activity compared with FLO
Source text: as §1

AVQLTHQQQGQV [P2c, derivative of FLO]
Coag. [1]: − | antlbt. [2]: −

GQVGPQQVRQMYRVASNIPST [P3, derivative of FLO]
Coag. [1]: − | antlbt. [2]: −

PQRCPSLRQAV [P2a, derivative of FLO]
Coag. [1]: − | antlbt. [2]: −

PQRCPSLRQAVQLTHQ [P2ab, derivative of FLO]
Coag. [1]: ++

PQRCPSLRQAVQLTHQQQGQV [P2, derivative of FLO]
Coag. [1]: ++ | antlbt. [2]: +

PQRCPSLRQAVQLTHQQQRQV [P2GR40, derivative of FLO]
Coag. [1]: +++ | antlbt. [2]: ++

QGPGRQPDFQRCGQQLRNISPP [P1, derivative of FLO]
Coag. [1]: −

QGPGRQPDFQRCGQQLRNISPPQRCPSLRQAVQLTHQQQGQVGPQQRQMYRVASNIPST [Flo, protein called FLO, disclosed in WO 03/008441 A2; coagulation and antimicrobial agent, reference compound]
Coag. [1]: ++ | antlbt. [2]: ++

RCGQQLRNISPPQRCPSLRQAVQLTHQQQGQ [P2.1, derivative of FLO]
Coag. [1]: −

SLRQAVQLTHQ [P2b, derivative of FLO]
Coag. [1]: − | antlbt. [2]: −
